In ChEMBL document CHEMBL5303304, “EUbOPEN Chemogenomics Library - IncuCyte” (2023):
“And” between values parts separate entries of the source, which are not always exact repeats. Equal entries are not always repeated.

How the values were obtained:
Type in all cases: toxicity, cell-based
HEK-293T = assay: Incucyte cell viability with HEK293T; settings: human, 10 µM, compound concentration 10 uM
Fibroblast = assay: Incucyte cell viability with human fibroblast; settings: 10 µM, compound concentration 10 uM
U2OS = assay: Incucyte cell viability with U2OS; settings: human, 10 µM, compound concentration 10 uM
Also: unitless GR value; below 1 slowed growth and below 0 cell loss.

SMILES | Growth Rate (HEK-293T; 6 h, replicate number 1) | Growth Rate (HEK-293T; 6 h, replicate number 2) | Growth Rate (HEK-293T; 12 h, replicate number 2) | Growth Rate (HEK-293T; 18 h, replicate number 2) | Growth Rate (Fibroblast; 0 h, replicate number 1) | Growth Rate (Fibroblast; 6 h, replicate number 2) | Growth Rate (Fibroblast; 12 h, replicate number 1) | Growth Rate (Fibroblast; 18 h, replicate number 1) | Growth Rate (Fibroblast; 18 h, replicate number 2) | Growth Rate (Fibroblast; 24 h, replicate number 1) | Growth Rate (U2OS; 0 h, replicate number 2) | Growth Rate (U2OS; 12 h, replicate number 1) | Growth Rate (U2OS; 18 h, replicate number 2) | Growth Rate (HEK-293T; 18 h, replicate number 1) | Growth Rate (HEK-293T; 24 h, replicate number 2) | Growth Rate (U2OS; 6 h, replicate number 1) | Growth Rate (U2OS; 18 h, replicate number 1) | Growth Rate (HEK-293T; 12 h, replicate number 1) | Growth Rate (Fibroblast; 0 h, replicate number 2) | Growth Rate (U2OS; 24 h, replicate number 1) | other results
N#Cc1cccc(-c2nc(-c3cccnc3)no2)c1 | 0.4 | 0.1 | 0.6 | 0.95 | -0.49 | 0.7 | -0.97 | -0.08 | 0.55 | 0.19 | -0.52 | 0.67 | 1 |  |  |  |  |  |  |  | Growth Rate (Fibroblast; 12 h, replicate number 2): 0.88; Growth Rate (Fibroblast; 24 h, replicate number 2): 0.92
O=c1cc(-c2ccccc2)oc2c1ccc1ccccc12 [ALPHA-NAPHTHOFLAVONE] | 0.31 | 0.53 | 0.81 | 0.8 | 0.97 |  |  |  |  | 0.65 | -0.73 | 0.67 | 0.66 | 0.95 | 0.88 | -0.07 | 0.92 |  |  |  | Growth Rate (U2OS; 6 h, replicate number 2): 0.41; Growth Rate (U2OS; 12 h, replicate number 2): 0.63
CC[C@H](NC(=O)[C@H](C)NC)C(=O)N1C[C@@H](O)C[C@H]1Cc1c(-c2[nH]c3cc(F)ccc3c2C[C@@H]2C[C@H](O)CN2C(=O)[C@H](CC)NC(=O)[C@H](C)NC)[nH]c2cc(F)ccc12 [BIRINAPANT] | 0.67 | 0.87 | 0.97 |  | -0.44 |  |  |  |  |  |  | 0.81 |  | 0.9 |  |  | 0.98 | 0.62 | -0.61 |  | Growth Rate (U2OS; 0 h, replicate number 1): 0.94
CNC(=O)COc1cc2cc(Nc3nc(N4CCC(C(=O)N(C)C)CC4)ncc3Cl)cc(OC)c2n(C)c1=O | 0.46 | 0.13 | 0.41 | 0.58 |  | 0.46 |  |  |  |  | 0.59 |  | 0.87 | 0.57 | 0.66 | 0.94 |  | 0.74 | 0 | 0.92 | Growth Rate (HEK-293T; 24 h, replicate number 1): 0.67; Growth Rate (Fibroblast; 24 h, replicate number 2): 0.87; Growth Rate (U2OS; 12 h, replicate number 2): 0.77; Growth Rate (U2OS; 24 h, replicate number 2): 0.91
COc1cc(O)c(C(CC(=O)N2C[C@H](C)C[C@H](C)C2)c2ccc3c(c2)OCO3)c(OC)c1 (stereo not given in full) |  |  |  |  |  | 1 | 0.5 | 0.1 | 0.88 | 0.74 | 0.9 |  |  |  |  |  |  |  | 0.14 |  | Growth Rate (HEK-293T; 0 h, replicate number 1): 0.81; Growth Rate (HEK-293T; 0 h, replicate number 2): -0.14; Growth Rate (Fibroblast; 6 h, replicate number 1): -0.32; Growth Rate (U2OS; 0 h, replicate number 1): 0.96
Cc1c(N2CCCC2)nc2ccc(Br)cc2c1C(=O)NC[C@H](CCC(=O)O)c1ccccc1Cl.Cl.O |  |  |  |  | -1 |  |  |  |  |  | -0.04 | 0.97 | 0.99 |  |  | 0.65 | 0.93 |  | -0.4 | 0.91 | Growth Rate (HEK-293T; 0 h, replicate number 1): 0.22; Growth Rate (HEK-293T; 0 h, replicate number 2): -0.18; Growth Rate (Fibroblast; 6 h, replicate number 1): 0.4; Growth Rate (Fibroblast; 12 h, replicate number 2): 0.93; Growth Rate (U2OS; 24 h, replicate number 2): 0.92
CC(=O)c1c(C)c2cnc(Nc3ccc(N4CCNCC4)cn3)nc2n(C2CCCC2)c1=O [PALBOCICLIB] | 0.61 | 0.69 | 0.81 | 0.8 | -0.2 |  | 0.92 | 0.87 | 0.98 | 0.79 |  | 0.87 and 0.84 |  | 0.78 | 0.75 | 0.72 and 0.58 | 0.59 and 0.72 | 0.77 |  | 0.76 and 0.92 | Growth Rate (HEK-293T; 0 h, replicate number 1): 0.2; Growth Rate (HEK-293T; 0 h, replicate number 2): 0.78; Growth Rate (HEK-293T; 24 h, replicate number 1): 0.83 and 0.98; Growth Rate (Fibroblast; 6 h, replicate number 1): 0.91; Growth Rate (U2OS; 6 h, replicate number 2): 0.97
Cn1cc(NC(=O)c2ccc3nc4n(c3c2)CCCNC4=O)nc1C(=O)NC1CCCC1 |  | 0.99 | 0.88 | 0.85 | 0.88 | 0.57 | 0.67 | 0.91 | 0.78 | 0.79 |  | 0.82 | 0.99 | 0.64 | 0.9 |  | 0.95 | 0.69 | 0.62 | 0.91 | Growth Rate (HEK-293T; 0 h, replicate number 2): 0.71; Growth Rate (HEK-293T; 24 h, replicate number 1): 0.81; Growth Rate (Fibroblast; 12 h, replicate number 2): 0.76; Growth Rate (Fibroblast; 24 h, replicate number 2): 0.92; Growth Rate (U2OS; 0 h, replicate number 1): 0.36; Growth Rate (U2OS; 12 h, replicate number 2): 0.97
O=C1CN(c2ccccc2F)C(NCCN2CCOCC2)=C1c1nc2cc(Br)ccc2c(=O)[nH]1 | 0.22 | 0.74 | 1 |  |  |  |  |  |  |  |  | 0.85 |  | 0.53 | 0.88 | 0.56 | 1 | 0.49 | -0.37 | 0.89 | Growth Rate (HEK-293T; 24 h, replicate number 1): 0.74; Growth Rate (U2OS; 0 h, replicate number 1): 0.24; Growth Rate (U2OS; 12 h, replicate number 2): 0.96; Growth Rate (U2OS; 24 h, replicate number 2): 0.96
